Data from patent EP0643964A2 (priority 1993, dated 1995).
Several values for one entry are separate records, joined by “and”; a condition that tells them apart may be missing. Equal entries are not always repeated. Where two headings read alike, the source gives them in different places.

How the values were obtained:
HIV (RETROVIRUS) = assay: Evolution of HIV infected patients (CD4+ counts); type: in vivo, human; conditions: for number of CD4+ cells in blood: individual patients 1-4
Excerpt: One group experiment consisted in 6 volunteer patients males and females aged between 22 and 35. […] Patient 5 and patient 6, just received saline by same route and frequency as treated patients.
The evolution of the disease in the analyzed patients was done by counting the number of CD4+ cells/mm³ blood and the CD4/CD8 ratio. Blood samples were collected every 15 days.
Treatment of patients started after the fourth sample extraction.

[1] = tested on: P815 H-2^d mastocytoma cells; assay: In vitro cell growth, P815 seeded petri dishes (Trypan blue count); type: cell-based
Method: (§1) EL4 h-2^b murine T-Lymphoma (2x10⁶ cells) and P815 H-2^d mastocytoma cells (2x10⁶ cells) (kindly provided by Prof. Gideon Berke at the Weizmann Institute of Sciences, Rehovot, Israel) suspended in 2 ml RPMI-HEPES supplemented with […] and 10% fetal calf serum (FCS) were seeded in every one of 10 petri dishes for each of five groups for the EL4 cells and two groups for the P815 cells. […] Group E dishes were co-cultivated with 0.1 ml RPMI-HEPES alone.
(§2) Petri dishes were incubated for 72 hours at 37°C in 5% CO₂ atmosphere. The cells harvested from the petri dishes were then centrifuged, diluted with 1% Trypan blue and counted on a Neubauer chamber.

[2] = tested on: EL4 h-2^b murine T-Lymphoma; assay: In vitro cell growth, EL4 seeded petri dishes (Trypan blue count); type: cell-based; conditions: for Cells Alive ± STD: 72 hours
Method: as §1, §2

herpes zoster = assay: Herpes zoster infection in patients; type: in vivo, human
Excerpt: PATIENT A: who presented a grade II vesical transitional carcinoma that was endoscopically resected. 60 days after resection they presented their first herpetic episode in chest, of 10 days of evolution. 175 days later, a second episode was presented, beginning with hyper and parastesy in the affected area and sudden appearance of vesicles.
PATIENT B: without any apparent disease. 20 and 12 months before they presented two episodes of herpes zoster in the right submammary area, of high intensity, with exquisite pain that made impossible contact with clothes, each episode lasting 3 weeks. At the present time, the patient presented their third episode, preceded by fever (during 48 hours), with crusted vesicles, some of them impetiginized.
PATIENT C: with a breast cancer, under chemo and hormone therapy. After each chemotherapy schedule received, they developed an herpetic episode in the left leg.

[3] = tested on: patients with acute hemorraghic diarrhea; assay: Intravenous treatment of patients with acute hemorrhagic diarrhea; type: in vivo, human
Method: Rectoscopies were performed in all patients immediately before treatment, 2 and 7 days later. Two (2) of the patients accepted to be biopsed at the moment of the first and second rectoscopies.

canine parvovirus (CPV) = type: in vivo, dogs; conditions: for Viral titers (hemagglutination): Treated group (A): 5 ml 2% lidocaine i.v. twice a day 2 days; for Viral titers of enteric homogenates: Treated group (A), titers obtained on Vero cells
herpes simplex = assay: Evolution of recidivant periorificial herpes simplex infection in volunteers; type: in vivo, human
Method: Patients were divided into 3 groups: one of the groups (n=4) received acyclovir by oral route and topical applications of the same drug. […] Experiments began with the appearance of the next episode of herpes, just in the moment when vesicles appeared.
All these patients were controlled monthly during the following 4 months. During this time, group A patients presented episodes with a pattern similar to that they had before the experiment was performed. […] The remaining two presented an episode of herpes 2.8 and 3.3 months later.

M3 tumor = assay: M3 transplanted mice, tumor area (lidocaine and epidoxorrubicine); type: in vivo
Giardia lamblia = assay: Patients with malabsorption syndrome (MAS) caused by Giardia lamblia; type: in vivo, human
Excerpt: Volunteer # 1: Type II MAS with positive isolation of Giardia lamblia in duodenal washings and confirmation of the disease by histopathology. […] One month later, patient 1 presented symptoms and signs of recurrence of the disease, with positive isolation of parasites in feces.
Volunteer # 2: with diffuse abdominal pain, loss of body weight and steatorrhea.

[4] = Mus musculus, 72 h, read-out: I/C: Percentual increment over control growth
[5] = herpes simplex episode, ACV oral+topical, lidocaine 5 ml 2% i.v. twice a day 2 days
[6] = Volunteer # 2, day 7 post-treatment

## CCN(CC)CC(=O)Nc1c(C)cccc1C [lidocaine]
HIV (RETROVIRUS); all the treated patients, controls decreased
  CD4 counting: increase or no decrease
HIV (RETROVIRUS); sample 1 (every 2 weeks), before treatment
  number of CD4+ cells in blood: 480 cells/mm³ and 294 cells/mm³ and 230 cells/mm³ and 500 cells/mm³
HIV (RETROVIRUS); sample 2, before treatment
  number of CD4+ cells in blood: 475 cells/mm³ and 294 cells/mm³ and 238 cells/mm³ and 496 cells/mm³
HIV (RETROVIRUS); sample 3, before treatment
  number of CD4+ cells in blood: 475 cells/mm³ and 280 cells/mm³ and 235 cells/mm³ and 496 cells/mm³
HIV (RETROVIRUS); sample 4, last before treatment
  number of CD4+ cells in blood: 480 cells/mm³ and 270 cells/mm³ and 234 cells/mm³ and 485 cells/mm³
[1]; Group A, 0.1 ml 0.005% lidocaine, 72 hours, control 4.66E+06
  Alive Cells ± STD: 3.77E+06 ± 0.11 millions of cells
[1]; Group A, 0.1 ml 0.005% lidocaine, control 2.33E+06
  Dead cells: 1.96E+06
[1]; Mus musculus, P815, 72 h, read-out: I/C: Percentual increment over control growth
  inhibition at 0.005 %: 19.1%
[2]; Group A, 0.1 ml 2% lidocaine in 2 ml, 2 millions seeded, control 5.92E+06
  Cells Alive ± STD: 5.16E+06 ± 0.04 millions of cells
[2]; Group A, 2% lidocaine, control 2.08E+06
  Dead cells: 2.78E+06
[2]; Group B, 0.1 ml 0.5% lidocaine
  Cells Alive ± STD: 5.90E+06 ± 0.03 millions of cells
[2]; Group B, 0.5% lidocaine
  Dead cells: 1.64E+06
[2]; Group C, 0.05% lidocaine
  Dead cells: 1.52E+06
[2]; Group C, 0.1 ml 0.05% lidocaine
  Cells Alive ± STD: 5.46E+06 ± 0.01 millions of cells
[2]; Group D, 0.005% lidocaine
  Dead cells: 1.12E+06
[2]; Group D, 0.1 ml 0.005% lidocaine
  Cells Alive ± STD: 3.48E+06 ± 0.02 millions of cells
[2]; [4]
  inhibition at 0.005 %: 41.2%
  inhibition at 0.05 %: 7.77%
  inhibition at 0.5 %: 0.34%
  inhibition at 2 %: 12.8%
[2]; Mus musculus, EL4, 72 h, read-out: amount of dead cells
  cytotoxicity at 2 %: 35%
[2]; groups B to E (0.5%, 0.05%, 0.005% lidocaine and control), 4320 min
  amount of dead cells: 20-25%
Herpes zoster; PATIENT C, breast cancer under chemo and hormone therapy
  Evolution of herpetic lesions: residual hyperesthesia persisted
Herpes zoster; individual patients (A, B)
  time to healing (crusts detached / all vesicles healed): ≤ 7 day post-treatment and 10 day post-treatment
Herpes zoster; individual patients (A, B), i.v. twice a day 2 days
  time to disappearance of pain: ≤ 5 days and 5 days
[3]; 4 patients, 5 ml 2% solution i.v. twice a day for 2 days, after 48 hours of treatment
  Symptomatology: abolishment of symptomatology
[3]; second biopsy (2 patients)
  Microscopic examination of mucosa: Slight chronic inflammatory process with indemnity of epithelium
[3]; second rectoscopy, 2 days after start of treatment
  Rectoscopy: congestive and edematous mucosa, without hemorrhages and erosions
[3]; third rectoscopy, 7 days later
  Rectoscopy: normal mucosa
Canine parvovirus (CPV); CPV infected dogs, group A (treated), all controls died by 60 hours
  Mortality: no mortality
Canine parvovirus (CPV); 12 hrs. after first signs
  Viral titers (hemagglutination): 0 inverse of the last dilution which agglutinated sheep red cells
Canine parvovirus (CPV); 24 hrs.
  Viral titers (hemagglutination): 16 inverse of the last dilution which agglutinated sheep red cells
  Viral titers of enteric homogenates: 0.1 x 10^4 TCID₅₀/ml
Canine parvovirus (CPV); 36 hrs.
  Viral titers (hemagglutination): 320 inverse of the last dilution which agglutinated sheep red cells
  Viral titers of enteric homogenates: 0.5 x 10^7 TCID₅₀/ml
Canine parvovirus (CPV); 48 hrs.
  Viral titers (hemagglutination): 320 inverse of the last dilution which agglutinated sheep red cells
  Viral titers of enteric homogenates: 0.3 x 10^7 TCID₅₀/ml
Canine parvovirus (CPV); 60 hrs.
  Viral titers (hemagglutination): 160 inverse of the last dilution which agglutinated sheep red cells
  Viral titers of enteric homogenates: 2.3 x 10^5 TCID₅₀/ml
Canine parvovirus (CPV); 72 hrs.
  Viral titers (hemagglutination): 40 inverse of the last dilution which agglutinated sheep red cells
  Viral titers of enteric homogenates: 6.3 x 10^4 TCID₅₀/ml
Canine parvovirus (CPV); 84 hrs.
  Viral titers (hemagglutination): 40 inverse of the last dilution which agglutinated sheep red cells
  Viral titers of enteric homogenates: 5.8 x 10^4 TCID₅₀/ml
Canine parvovirus (CPV); 96 hrs.
  Viral titers (hemagglutination): 40 inverse of the last dilution which agglutinated sheep red cells
  Viral titers of enteric homogenates: 6.0 x 10^4 TCID₅₀/ml
Canine parvovirus (CPV); 12 hrs.
  Viral titers of enteric homogenates: 2.1 x 10^2 TCID₅₀/ml
Canine parvovirus (CPV); group A, after 48 hours from the beginning of treatment
  Signs of the disease: none of the animals showed signs of the disease
Canine parvovirus (CPV); group A, by 72 hours post-treatment
  Histological aspect of enteric mucosa: normal histological aspect
Herpes simplex; Group B, by 48 hours after treatment was begun
  Pain: no pain existed
Herpes simplex; Group B, lidocaine i.v. at appearance of vesicles
  Vesicle evolution: Neither rupture of vesicles nor crust formation was found
Herpes simplex; [5]
  Duration of lesions: 4.5 days
  Duration of symptoms: 2 days
Herpes simplex; individual patients, followed monthly for 4 months
  FIRST EPISODE AFTER TREATMENT: 84 days and 94 days
Herpes simplex; patients who received lidocaine (groups B and C), 4 months follow-up
  patients who did not present another episode of the disease: 4 of 6
Herpes simplex; the remaining two lidocaine patients
  time to next episode of herpes: 2.8 months and 3.3 months
M3 tumor; day 7 p-t (day 0), lidocaine 0.1 ml 0.05% every 7 days, epidoxorrubicine 0.125 ml 0.2% every 7 days, combination: lidocaine 2 days after epidoxorrubicine
  Area (tumor): 0.46
M3 tumor; day 10 p-t, saline control 103.47
  I/Ø: Percentual increment over tumor in day 0 (day 7 p-t): 18.75%
M3 tumor; day 12 p-t, regimens as Table 5 footnotes, saline control 1.56
  Area (tumor): 0.70
M3 tumor; day 12 p-t, saline control 245.61
  I/Ø: Percentual increment over tumor in day 0 (day 7 p-t): 51.56%
M3 tumor; day 14 p-t, regimens as Table 5 footnotes, saline control 2.06
  Area (tumor): 0.96
M3 tumor; day 14 p-t, saline control 357.57
  I/Ø: Percentual increment over tumor in day 0 (day 7 p-t): 107.81%
M3 tumor; day 16 p-t, regimens as Table 5 footnotes, saline control 2.78
  Area (tumor): 1.11
M3 tumor; day 16 p-t, saline control 516.74
  I/Ø: Percentual increment over tumor in day 0 (day 7 p-t): 142.19%
M3 tumor; day 18 p-t, regimens as Table 5 footnotes, saline control 3.61
  Area (tumor): 1.38
M3 tumor; day 21 p-t, regimens as Table 5 footnotes, saline control 4.61
  Area (tumor): 1.93
M3 tumor; day 23 p-t, regimens as Table 5 footnotes, saline control 5.49
  Area (tumor): 2.90
M3 tumor; day 25 p-t, regimens as Table 5 footnotes, saline control 6.24
  Area (tumor): 3.57
M3 tumor; day 25 p-t, saline control 1286.33
  I/Ø: Percentual increment over tumor in day 0 (day 7 p-t): 676.56%
Giardia lamblia; Volunteer # 1, five days later
  D-xylose and Van der Kamer tests: normal values
Giardia lamblia; Volunteer # 1, five days later (type II MAS before)
  Enteric histopathological examination: type I MAS
Giardia lamblia; Volunteer # 1, i.v. twice a day 2 days, five days later
  isolation of parasites in feces: negative results
Giardia lamblia; Volunteer # 1, thirty days later
  All tests performed: normalization of enteric function with negative isolation of parasites
Giardia lamblia; [6]
  D-xylose and Van der Kamer tests: normal
  Symptoms: asymptomatic
Giardia lamblia; Volunteer # 2, day 7 post-treatment (type II MAS before)
  microscopic examination of enteric mucosa: type I MAS
Giardia lamblia; Volunteer # 2, day 28 post-treatment
  Overall status: asymptomatic, with gain of weight, normal tests, negative isolation of parasites and a normalization of the microscopic aspect of the enteric mucosa
Giardia lamblia; Volunteer # 2, i.v. twice a day 2 days (5 ml, 2%), day 7 post-treatment
  isolation of parasites: negative results
